Assay results reported in BindingDB's records for PubMed 32163814 (n/a, 2020).

Tests used:
Histone deacetylase 6 [1] = target: T1, Histone deacetylase 6 (Homo sapiens, UniProt Q9UBN7); assay: Inhibition of human recombinant HDAC6 using fluorogenic HDAC substrate measured after 20 mins by fluorescence assay
T1 sequence (Q9UBN7 whole entry): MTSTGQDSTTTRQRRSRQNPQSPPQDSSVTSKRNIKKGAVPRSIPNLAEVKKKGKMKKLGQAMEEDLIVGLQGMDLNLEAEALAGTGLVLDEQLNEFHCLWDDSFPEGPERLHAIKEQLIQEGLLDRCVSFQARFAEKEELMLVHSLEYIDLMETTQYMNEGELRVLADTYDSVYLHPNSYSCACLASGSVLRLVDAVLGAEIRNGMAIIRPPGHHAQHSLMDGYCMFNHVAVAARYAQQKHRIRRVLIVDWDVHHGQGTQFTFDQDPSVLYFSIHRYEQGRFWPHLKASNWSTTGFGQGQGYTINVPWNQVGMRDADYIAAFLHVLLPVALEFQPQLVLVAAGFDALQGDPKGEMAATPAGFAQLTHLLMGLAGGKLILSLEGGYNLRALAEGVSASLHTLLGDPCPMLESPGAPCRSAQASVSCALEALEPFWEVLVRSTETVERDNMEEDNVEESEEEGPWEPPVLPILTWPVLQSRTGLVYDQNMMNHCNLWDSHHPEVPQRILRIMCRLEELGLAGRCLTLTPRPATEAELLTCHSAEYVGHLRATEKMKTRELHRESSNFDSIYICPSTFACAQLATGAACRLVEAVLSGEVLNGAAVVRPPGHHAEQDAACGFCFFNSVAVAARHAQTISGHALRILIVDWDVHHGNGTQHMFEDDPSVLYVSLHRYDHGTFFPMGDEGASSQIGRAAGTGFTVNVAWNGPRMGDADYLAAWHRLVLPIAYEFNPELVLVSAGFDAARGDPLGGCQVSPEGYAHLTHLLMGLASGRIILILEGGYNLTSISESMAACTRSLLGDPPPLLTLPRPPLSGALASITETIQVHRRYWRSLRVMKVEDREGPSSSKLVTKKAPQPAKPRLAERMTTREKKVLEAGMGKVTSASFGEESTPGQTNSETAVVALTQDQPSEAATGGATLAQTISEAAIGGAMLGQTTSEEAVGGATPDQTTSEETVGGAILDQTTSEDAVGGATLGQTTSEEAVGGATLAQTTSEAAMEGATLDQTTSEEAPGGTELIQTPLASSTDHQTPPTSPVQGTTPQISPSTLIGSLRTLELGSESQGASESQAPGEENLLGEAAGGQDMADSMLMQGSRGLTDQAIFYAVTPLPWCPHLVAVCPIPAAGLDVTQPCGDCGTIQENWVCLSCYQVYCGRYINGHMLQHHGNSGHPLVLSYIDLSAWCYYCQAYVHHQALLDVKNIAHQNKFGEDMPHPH

Histone deacetylase 2 = Histone deacetylase 2 (Homo sapiens, UniProt Q92769); assay: Inhibition of human HDAC2 using fluorogenic as substrate measured after 30 mins by fluorescence based analysis
Histone deacetylase 2, sequence (Q92769 whole entry): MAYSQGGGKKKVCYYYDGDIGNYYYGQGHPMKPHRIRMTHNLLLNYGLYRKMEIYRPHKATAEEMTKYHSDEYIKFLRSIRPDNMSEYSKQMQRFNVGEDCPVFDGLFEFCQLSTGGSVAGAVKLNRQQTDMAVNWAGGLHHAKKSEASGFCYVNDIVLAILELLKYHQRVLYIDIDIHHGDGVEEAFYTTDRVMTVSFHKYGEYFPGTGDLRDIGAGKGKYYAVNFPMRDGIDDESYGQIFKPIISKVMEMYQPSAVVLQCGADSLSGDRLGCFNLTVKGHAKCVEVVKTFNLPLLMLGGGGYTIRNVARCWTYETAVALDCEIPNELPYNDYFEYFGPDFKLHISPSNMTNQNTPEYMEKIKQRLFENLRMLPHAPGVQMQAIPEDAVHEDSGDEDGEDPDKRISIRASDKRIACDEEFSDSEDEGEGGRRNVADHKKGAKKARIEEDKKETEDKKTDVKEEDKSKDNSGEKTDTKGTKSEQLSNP

Histone deacetylase 6 [2] = target: T1, Histone deacetylase 6; assay: Inhibition of human HDAC6 using fluorogenic as substrate measured after 30 mins by fluorescence based analysis
Histone deacetylase 1 = Histone deacetylase 1 (Homo sapiens, UniProt Q13547); assay: Inhibition of human HDAC1 using fluorogenic as substrate measured after 30 mins by fluorescence based analysis
Histone deacetylase 1, sequence (Q13547 whole entry): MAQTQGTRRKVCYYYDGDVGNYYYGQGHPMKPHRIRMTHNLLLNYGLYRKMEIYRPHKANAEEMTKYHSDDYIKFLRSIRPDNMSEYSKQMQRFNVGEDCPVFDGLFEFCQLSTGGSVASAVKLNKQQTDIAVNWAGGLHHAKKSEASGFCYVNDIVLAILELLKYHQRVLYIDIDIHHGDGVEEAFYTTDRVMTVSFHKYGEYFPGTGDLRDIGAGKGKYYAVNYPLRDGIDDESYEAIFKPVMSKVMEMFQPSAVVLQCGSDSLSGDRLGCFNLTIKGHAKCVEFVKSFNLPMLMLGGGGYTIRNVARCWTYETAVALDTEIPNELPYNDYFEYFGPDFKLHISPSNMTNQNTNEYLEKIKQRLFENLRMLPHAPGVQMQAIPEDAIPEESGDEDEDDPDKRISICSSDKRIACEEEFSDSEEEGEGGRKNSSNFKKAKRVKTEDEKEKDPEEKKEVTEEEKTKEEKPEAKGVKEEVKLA

Histone deacetylase 3 = Histone deacetylase 3 (Homo sapiens, UniProt O15379); assay: Inhibition of human HDAC3 using fluorogenic as substrate measured after 30 mins by fluorescence based analysis
Histone deacetylase 3, sequence (O15379 whole entry): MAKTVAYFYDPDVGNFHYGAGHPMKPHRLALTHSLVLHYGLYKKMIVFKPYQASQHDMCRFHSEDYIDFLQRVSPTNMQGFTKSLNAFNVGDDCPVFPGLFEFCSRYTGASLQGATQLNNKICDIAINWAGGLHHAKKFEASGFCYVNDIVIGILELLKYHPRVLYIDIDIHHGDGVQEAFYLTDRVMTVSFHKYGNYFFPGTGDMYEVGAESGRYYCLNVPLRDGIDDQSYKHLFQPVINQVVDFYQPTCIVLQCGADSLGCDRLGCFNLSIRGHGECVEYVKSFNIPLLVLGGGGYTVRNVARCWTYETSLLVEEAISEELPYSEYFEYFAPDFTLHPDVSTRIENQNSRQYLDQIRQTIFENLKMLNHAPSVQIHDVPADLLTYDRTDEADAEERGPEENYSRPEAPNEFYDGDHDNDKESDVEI

SMILES	IC50 (Histone deacetylase 6 [1]) [nM]	IC50 (Histone deacetylase 2) [nM]	IC50 (Histone deacetylase 6 [2]) [nM]	IC50 (Histone deacetylase 1) [nM]	IC50 (Histone deacetylase 3) [nM]
COc1ccccc1NC(=O)N[C@H](C(=O)Nc1ccc(C(=O)NO)cc1)c1ccccc1	294				
CN(C)c1cccc2c(S(=O)(=O)N[C@H](C(=O)Nc3ccc(C(=O)NO)cc3)c3ccccc3)cccc12		107	366		
O=C(NO)c1ccc(NC(=O)[C@@H](NC(=O)c2cccc(Br)c2)c2ccccc2)cc1		89	196		
O=C(NO)c1ccc(NC(=O)[C@@H](NC(=O)c2ccc3ccccc3c2)c2ccccc2)cc1		244	376	29	
O=C(NO)c1ccc(NC(=O)[C@@H](NS(=O)(=O)c2cccc3ccccc23)c2ccccc2)cc1		171	295	31	23
